For one assay, the target named is JNK1 (Homo sapiens, UniProt P45983). Nature of the assay: Kinase selectivity panel: JNK1. It is filed as biochemical.
The next assay has as its target SYK (Homo sapiens, UniProt P43405). Nature of the assay: Kinase selectivity panel: SYK. It is filed as biochemical.
Another assay concerns the target CAMK2D (Homo sapiens, UniProt Q13557). Nature of the assay: Kinase selectivity panel: CAMK2D. The format is biochemical.
Another assay deals with ERK2 (Homo sapiens, UniProt P28482). As to the kind of experiment: Kinase selectivity panel: ERK2. It is filed as biochemical.
The target of another assay is P38 alpha (Homo sapiens, UniProt Q16539). As to the kind of experiment: Kinase selectivity panel: P38 alpha. The format is biochemical.
P38 alpha, sequence (Q16539 whole entry): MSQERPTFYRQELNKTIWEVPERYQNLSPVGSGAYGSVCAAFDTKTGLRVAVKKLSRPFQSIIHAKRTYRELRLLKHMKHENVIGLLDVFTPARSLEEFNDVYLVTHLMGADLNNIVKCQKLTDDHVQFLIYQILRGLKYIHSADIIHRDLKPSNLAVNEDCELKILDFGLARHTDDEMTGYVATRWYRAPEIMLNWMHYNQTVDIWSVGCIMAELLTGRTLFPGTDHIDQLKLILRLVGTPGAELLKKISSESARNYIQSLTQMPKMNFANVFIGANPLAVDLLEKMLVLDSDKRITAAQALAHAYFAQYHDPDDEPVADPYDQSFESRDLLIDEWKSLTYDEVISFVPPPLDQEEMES
Another assay deals with CDK5/p35 (Homo sapiens, UniProt Q00535). As to the kind of experiment: Kinase selectivity panel: CDK5/p35. The format is biochemical.
CDK5/p35, sequence (Q00535 whole entry, species assumed): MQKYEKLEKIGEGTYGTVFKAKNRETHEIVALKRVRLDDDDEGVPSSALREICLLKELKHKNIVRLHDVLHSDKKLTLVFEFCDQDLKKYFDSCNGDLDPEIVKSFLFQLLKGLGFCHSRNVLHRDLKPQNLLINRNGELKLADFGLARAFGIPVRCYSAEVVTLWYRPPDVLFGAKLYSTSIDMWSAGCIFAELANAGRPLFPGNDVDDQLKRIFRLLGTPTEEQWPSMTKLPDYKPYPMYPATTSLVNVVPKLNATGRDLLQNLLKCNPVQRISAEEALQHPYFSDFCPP
CDK5/p35, sequence (Q15078 whole entry partner, species assumed): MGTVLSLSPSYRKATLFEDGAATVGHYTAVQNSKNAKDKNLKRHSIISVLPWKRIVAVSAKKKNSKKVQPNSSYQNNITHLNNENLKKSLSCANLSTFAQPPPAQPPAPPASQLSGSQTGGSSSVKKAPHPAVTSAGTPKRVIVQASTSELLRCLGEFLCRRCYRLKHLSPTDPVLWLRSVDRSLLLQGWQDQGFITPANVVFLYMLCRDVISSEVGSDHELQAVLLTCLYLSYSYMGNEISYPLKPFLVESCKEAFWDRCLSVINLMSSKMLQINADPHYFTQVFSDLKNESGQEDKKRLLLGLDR
The next assay has as its target G2019S LRRK2 (Homo sapiens, UniProt Q5S007, G2019S). Nature of the assay: G2019S LRRK2 inhibition (Invitrogen SelectScreen / TR-FRET biochemical assay). Set-up: The protein construct used in the assay is GST tagged 969-2527; GST; purchased Invitrogen. Particulars: numeric value. How it is done:
IC50s were determined using Invitrogen's SelectScreen® Profiling Service for wild type and LRRK2 G2019S. The test compounds were screened in 1% DMSO (final) in the well.
a) % inhibition is measured at one concentration
b) a 10-point titration is run to ensure the kinase is inhibited within an expected IC50 range
Biochemical Assay Protocol:
Compound potency against wild-type and G2019S LRRK2 is measured via TR-FRET. The IC50, the amount of inhibitor required to inhibitor 50% of the protein under the given assay conditions, is determined by varying the amount of compound (500-0.001 uM) by serial dilution with 12-data points per compound, in duplicate. The substrate (Fluorescein-GAGRLGRDKYKTLRQIRQ) and ATP is fixed at 0.8 uM and 57 uM (KmATP), respectively. All assays are run in Corning low volume […] round bottomed plates. The assay is run in 50 mM Tris-HCl pH8.5, 10 mM MgCl2, 0.01% Brij-35, 1 mM EGTA, 2 mMDTT. The TR-FRET assay is an end-point assay where the reaction with protein, substrate, inhibitor and ATP is incubated for 1 hour at room temperature. The compound is pre-incubated with the protein and substrate prior to initiating the reaction with ATP. Phospho-transfer is detected using a Terbium labeled anti-pLRRKtide that binds to phosphorylated substrate creating FRET transfer when excited at 340 nm. Emissions signals are taken for terbium and FRET induced fluorescein at 495 nm and 520 nm, respectively, using a Biotek Synergy 2 spectrophotometer. The dose response is determined by plotting the emission ratio of 520/495 against the log of the inhibitor concentration. The maximum inhibition and non-inhibition controls is run on all plates. Staurosporine is used as the positive inhibition control and DMSO is used as the negative point control. A 12-point dose curve of Staurosporine is run as a dosing control. The IC50 is determined to be the inhibitor concentration at which 50% inhibition is achieved. The protein construct used in the assay is GST tagged 969-2527. The protein is commercially available from Invitrogen.
Alternatively, compounds of formulas (II), (I), (I-A), (I-B), (I-C), (I-D), (I-D-1), (I-D-2), (I-E), (I-F), (I-G), (I-H), (I-I), (I-I-1), (I-I-2), (I-J), (I-K), (I-L), (I-M), (I-N), (I-Z-1), (I-Z-2), (I-Z-2-a), (I-Z-2-b), (I-Z-2-c), (I-Z-2-d), (I-Z-3-a), (I-Z-3-b), (I-Z-3-c), or (I-Z-3-d) were tested using Invitrogen's SelectScreen® Profiling Service for LRRK2 G2019S.
(In general: TR-FRET usually uses a lanthanide donor and a delayed reading to cut background.)

The target in the next assay is ALK4 (Homo sapiens, UniProt P36896). As to the kind of experiment: Kinase selectivity panel: ALK4. It is filed as biochemical.
The target of the next assay is PAK4 (Homo sapiens, UniProt O96013). Nature of the assay: Kinase selectivity panel: PAK4. The format is biochemical.
The target of the next assay is INSR (Homo sapiens, UniProt P06213). Nature of the assay: Kinase selectivity panel: INSR. It is filed as biochemical.
A further assay deals with mTOR (Homo sapiens, UniProt P42345). As to the kind of experiment: Kinase selectivity panel: mTOR. It is filed as biochemical.
Another assay addresses PLK1 (Homo sapiens, UniProt P53350). As to the kind of experiment: Kinase selectivity panel: PLK1. The format is biochemical.
Another assay deals with FLT3 (Homo sapiens, UniProt P36888). As to the kind of experiment: Kinase selectivity panel: FLT3. The format is biochemical.
FLT3, sequence (P36888 27-993, species assumed): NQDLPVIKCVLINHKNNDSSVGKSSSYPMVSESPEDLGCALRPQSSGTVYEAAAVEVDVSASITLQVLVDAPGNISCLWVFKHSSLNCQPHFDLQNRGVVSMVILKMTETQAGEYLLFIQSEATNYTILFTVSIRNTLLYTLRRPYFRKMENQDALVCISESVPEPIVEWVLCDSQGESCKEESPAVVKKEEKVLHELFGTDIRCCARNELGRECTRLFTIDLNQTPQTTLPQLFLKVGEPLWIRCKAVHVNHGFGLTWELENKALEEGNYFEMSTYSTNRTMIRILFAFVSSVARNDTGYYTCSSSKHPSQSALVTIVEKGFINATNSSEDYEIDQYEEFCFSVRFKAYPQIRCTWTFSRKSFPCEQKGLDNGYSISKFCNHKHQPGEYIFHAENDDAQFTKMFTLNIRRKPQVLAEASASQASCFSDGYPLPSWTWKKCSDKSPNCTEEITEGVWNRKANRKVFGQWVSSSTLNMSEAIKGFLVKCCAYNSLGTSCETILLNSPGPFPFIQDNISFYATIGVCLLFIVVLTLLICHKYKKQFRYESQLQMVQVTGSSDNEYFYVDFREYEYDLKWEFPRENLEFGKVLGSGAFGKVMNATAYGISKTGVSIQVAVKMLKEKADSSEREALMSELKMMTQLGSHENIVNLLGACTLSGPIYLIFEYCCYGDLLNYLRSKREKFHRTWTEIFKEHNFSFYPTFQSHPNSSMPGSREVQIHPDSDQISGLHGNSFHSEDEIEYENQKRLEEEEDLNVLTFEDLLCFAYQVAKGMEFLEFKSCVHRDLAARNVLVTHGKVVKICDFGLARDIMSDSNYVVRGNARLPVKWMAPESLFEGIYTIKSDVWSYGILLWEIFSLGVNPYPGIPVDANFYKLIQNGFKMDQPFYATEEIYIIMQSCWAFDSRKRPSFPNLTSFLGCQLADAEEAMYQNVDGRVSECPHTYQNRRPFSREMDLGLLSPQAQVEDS
Another assay deals with AKT1 (Homo sapiens, UniProt P31749). As to the kind of experiment: Kinase selectivity panel: AKT1. It is filed as biochemical.
AKT1, sequence (P31749 whole entry, species assumed): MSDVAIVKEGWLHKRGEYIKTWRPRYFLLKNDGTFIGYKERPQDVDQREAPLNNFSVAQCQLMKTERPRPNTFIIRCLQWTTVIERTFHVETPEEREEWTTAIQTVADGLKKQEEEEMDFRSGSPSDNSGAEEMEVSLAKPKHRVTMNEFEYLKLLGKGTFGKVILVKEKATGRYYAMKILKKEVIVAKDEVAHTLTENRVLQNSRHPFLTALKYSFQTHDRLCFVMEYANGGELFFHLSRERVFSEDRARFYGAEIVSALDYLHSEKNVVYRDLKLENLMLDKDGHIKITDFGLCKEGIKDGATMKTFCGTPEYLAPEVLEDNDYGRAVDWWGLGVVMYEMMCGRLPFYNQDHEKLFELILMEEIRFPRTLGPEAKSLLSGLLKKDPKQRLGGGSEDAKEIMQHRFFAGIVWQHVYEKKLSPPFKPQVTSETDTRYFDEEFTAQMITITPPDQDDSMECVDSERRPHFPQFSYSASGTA
The target of the next assay is T1, IRAK4 (Homo sapiens, UniProt Q9NWZ3).
T1 sequence (Q9NWZ3 1-460): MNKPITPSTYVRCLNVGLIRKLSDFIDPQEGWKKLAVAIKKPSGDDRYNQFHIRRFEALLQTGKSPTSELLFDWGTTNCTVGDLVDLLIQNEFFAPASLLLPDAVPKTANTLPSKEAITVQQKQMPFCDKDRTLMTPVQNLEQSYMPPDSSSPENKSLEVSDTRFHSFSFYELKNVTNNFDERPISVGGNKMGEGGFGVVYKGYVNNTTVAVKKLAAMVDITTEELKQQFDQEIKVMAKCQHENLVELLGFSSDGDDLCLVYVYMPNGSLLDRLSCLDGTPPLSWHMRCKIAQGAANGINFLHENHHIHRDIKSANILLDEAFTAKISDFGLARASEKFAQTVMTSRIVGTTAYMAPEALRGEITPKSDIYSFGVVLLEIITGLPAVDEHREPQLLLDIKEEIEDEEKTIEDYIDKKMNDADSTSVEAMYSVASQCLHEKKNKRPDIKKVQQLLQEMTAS
As to the kind of experiment: Kinase selectivity panel: IRAK4. It is filed as biochemical.

In a further assay the target is BRAF (Homo sapiens, UniProt P15056). Nature of the assay: Kinase selectivity panel: BRAF. It is filed as biochemical.
BRAF, sequence (P15056 whole entry, species assumed): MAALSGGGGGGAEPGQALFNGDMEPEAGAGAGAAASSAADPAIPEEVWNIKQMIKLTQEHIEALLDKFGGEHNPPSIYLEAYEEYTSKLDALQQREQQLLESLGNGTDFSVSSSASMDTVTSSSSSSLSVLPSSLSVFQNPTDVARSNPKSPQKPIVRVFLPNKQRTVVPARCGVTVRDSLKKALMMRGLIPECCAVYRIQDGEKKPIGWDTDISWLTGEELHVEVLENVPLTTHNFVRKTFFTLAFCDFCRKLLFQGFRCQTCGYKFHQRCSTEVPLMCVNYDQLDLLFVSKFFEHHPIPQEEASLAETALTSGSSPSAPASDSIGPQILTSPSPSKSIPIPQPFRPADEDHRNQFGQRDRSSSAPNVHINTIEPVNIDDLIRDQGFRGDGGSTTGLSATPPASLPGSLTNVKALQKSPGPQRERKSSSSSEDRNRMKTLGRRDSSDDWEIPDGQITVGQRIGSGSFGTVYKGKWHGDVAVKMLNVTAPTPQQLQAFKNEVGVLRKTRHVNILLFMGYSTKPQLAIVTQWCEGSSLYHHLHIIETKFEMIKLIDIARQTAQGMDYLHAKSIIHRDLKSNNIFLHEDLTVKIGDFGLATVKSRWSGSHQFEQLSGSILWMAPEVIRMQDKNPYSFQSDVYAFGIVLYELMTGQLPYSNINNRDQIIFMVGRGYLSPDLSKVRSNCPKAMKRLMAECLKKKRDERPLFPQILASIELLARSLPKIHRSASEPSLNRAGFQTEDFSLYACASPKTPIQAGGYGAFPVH

Results on 1 compound are retold here after US20140205537A1, “LRRK2 INHIBITORS” (ZENOBIA THERAPEUTICS, INC., priority 2011, published 2014).

CAMK2D, sequence (Q13557 whole entry, species assumed): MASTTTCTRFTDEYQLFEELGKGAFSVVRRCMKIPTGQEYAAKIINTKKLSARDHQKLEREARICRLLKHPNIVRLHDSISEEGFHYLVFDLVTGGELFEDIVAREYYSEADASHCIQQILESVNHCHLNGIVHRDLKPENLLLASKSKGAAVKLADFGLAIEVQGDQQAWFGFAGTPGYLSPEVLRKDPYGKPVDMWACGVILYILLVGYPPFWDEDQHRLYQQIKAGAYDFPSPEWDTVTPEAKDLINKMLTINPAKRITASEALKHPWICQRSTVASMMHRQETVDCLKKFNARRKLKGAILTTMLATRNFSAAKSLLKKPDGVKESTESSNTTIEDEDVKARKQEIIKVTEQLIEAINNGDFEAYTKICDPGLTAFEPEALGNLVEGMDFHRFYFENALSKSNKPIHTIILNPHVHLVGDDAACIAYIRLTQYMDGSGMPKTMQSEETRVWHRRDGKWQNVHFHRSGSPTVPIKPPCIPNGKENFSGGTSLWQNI
JNK1, sequence (P45983 whole entry, species assumed): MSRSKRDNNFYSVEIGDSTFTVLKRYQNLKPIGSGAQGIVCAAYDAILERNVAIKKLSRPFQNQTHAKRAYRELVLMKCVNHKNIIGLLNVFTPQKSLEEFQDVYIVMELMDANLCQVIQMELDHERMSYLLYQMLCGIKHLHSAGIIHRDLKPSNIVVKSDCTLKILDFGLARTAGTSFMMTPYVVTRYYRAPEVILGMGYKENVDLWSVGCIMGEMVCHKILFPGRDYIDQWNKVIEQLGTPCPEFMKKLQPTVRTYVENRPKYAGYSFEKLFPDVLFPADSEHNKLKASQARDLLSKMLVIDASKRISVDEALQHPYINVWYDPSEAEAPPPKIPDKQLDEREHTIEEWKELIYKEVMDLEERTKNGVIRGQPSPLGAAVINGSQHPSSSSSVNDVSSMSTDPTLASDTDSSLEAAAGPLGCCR
PLK1, sequence (P53350 whole entry, species assumed): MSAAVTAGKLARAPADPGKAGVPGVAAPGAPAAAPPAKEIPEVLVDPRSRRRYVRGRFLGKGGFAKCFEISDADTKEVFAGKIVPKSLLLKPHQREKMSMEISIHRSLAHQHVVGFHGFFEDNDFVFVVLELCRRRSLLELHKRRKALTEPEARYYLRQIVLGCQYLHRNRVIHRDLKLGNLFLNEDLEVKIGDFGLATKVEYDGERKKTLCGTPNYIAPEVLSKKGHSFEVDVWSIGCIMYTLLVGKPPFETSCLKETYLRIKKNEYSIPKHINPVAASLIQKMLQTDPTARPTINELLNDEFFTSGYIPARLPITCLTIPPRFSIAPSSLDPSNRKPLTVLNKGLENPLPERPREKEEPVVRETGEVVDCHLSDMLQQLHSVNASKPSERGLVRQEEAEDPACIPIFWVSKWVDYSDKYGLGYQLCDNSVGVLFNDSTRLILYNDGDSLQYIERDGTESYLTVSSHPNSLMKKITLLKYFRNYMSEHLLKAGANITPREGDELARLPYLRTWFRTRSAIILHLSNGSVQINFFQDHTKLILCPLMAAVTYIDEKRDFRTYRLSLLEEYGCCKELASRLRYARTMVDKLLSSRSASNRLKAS

Broadly, the inhibition is the relative decrease from the control value, in per cent. For orientation: IC50 means the concentration needed to halve the response being measured. Turning to `COc1ccc2c(c1)/C(=C/c1cnc(C3CCOCC3)[nH]1)C(=O)N2` [Compound 18, (3Z)-5-methoxy-3-[(2-tetrahydropyran-4-yl-1H-imidazol-5-yl)methylene]indolin-2-one], the inhibition at 0.1 µM at JNK1 was -5%; against SYK, 8%; on CAMK2D (@0.1 uM), 41%; against ERK2, 8%; against P38 alpha, 12%; on CDK5/p35 (@0.1 uM) it was 1%. The inhibition at 0.1 µM at ALK4 was -3%; at PAK4, 1%; against INSR, 4%; at mTOR, 12%; on PLK1, 12%; on FLT3, 8%. Also, the inhibition at 0.1 µM at AKT1 is -2%; against IRAK4 (@0.1 uM) it was -1%; against BRAF it was 18%. Besides, the IC50 is 276 nM at CAMK2D, more than 10000 nM at CDK5/p35, 5.5 nM on G2019S LRRK2 and more than 10000 nM against IRAK4.
